Article PMC5856786, “A DHODH inhibitor increases p53 synthesis and enhances tumor cell killing by p53 degradation blockage” (Nature Communications, 2018)
Values belong to the compound of their own block, whether it stands above or below them.

Columns and labels:
RNA levels in ARN8 cells = test: RNASeq differential expression and gene ontology analysis; type: cell-based, human; settings: ARN8, 5 h
Source text: Libraries were generated using the NEBNext Ultra Directional RNA Library Prep Kit for Illumina (New England Biolabs). Data are deposited at GEO with the accession code: GSE87577. […] Differential expression and gene ontology analysis are in Supplementary Data 1. Values correspond to the average of three biological repeats.

ARN8 cells [1] = test: PI flow cytometry, sub-G1 cells, ARN8; type: cell-based, human; settings: for DMSO control subtracted effect (cells in sub-G1) / sub-G1 cells: ARN8 72 h
Experimental: (§1) Cell cycle distribution analysis was performed on a Becton Dickinson FACScan flow cytometer or FACSCalibur (BD Biosciences) following staining with propidium iodide (PI) or dual labeling with BrdU and PI[36]. These assays were analyzed using CellQuest Pro (BD Biosciences).

[2] = tested on: P-chk1 (Ser 345)/chk1 in ARN8 cells; test: P-chk1/chk1 ratio by western blotting, ARN8; type: cell-based, human; settings: first blot (taken as ARN8)
Source text: (Ser 345) and chk1 were detected. Ponceau S staining was used to monitor loading. […]

ARN8 cells [3] = test: SRB growth/viability assay, ARN8; type: cell-based, human; settings: for effect on cell growth and p53 activation in presence of excess uridine: uridine 100 μM
Experimental: SRB assays measuring protein content were performed in 96-well plates as previously described.

ARN8 cells [4] = test: BrdU/PI flow cytometry, cell cycle distribution; type: cell-based, human
Experimental: as §1

p53 in ARN8 cells = test: p53 synthesis assay (35S-Met-Cys pulse labeling, p53 immunoprecipitation); type: cell-based, human; settings: 20 μM, within 6 h of treatment
Experimental: ARN8 cells were seeded at 2.5 × 10^6 cells per 10 cm dish. […] After 5.5 h, medium was substituted for Met- and Cys-deprived DMEM, supplemented with 5 μM nutlin-3, 0.5% FBS and 4 mM L-glutamine for 20 min in the presence of the corresponding compounds. ^35S-Met-Cys (50 μCi mL^−1) was added for 30 min. […] Samples were centrifuged at 16,000×g for 15 min at 4 °C. Volume of 30 µL of each supernatant was stored as input. The remaining supernatants were incubated with 5 µg anti-p53 DO-1 antibody and rotated overnight at 4 °C. Samples were transferred to Dynabeads Protein G (# D10004D, Life Technologies) and rotated for 30 min at RT. Samples were centrifuged briefly for 10 s and placed in front of a magnet. […] Pellets were resuspended in 3× LDS containing 100 mM DTT. Samples were separated by SDS-PAGE and the gels were incubated in enhancer solution (#6NE9741, PerkinElmer), dried and exposed to Carestream Kodak BioMax MR films at −80 °C.

[5] = In vivo pharmacokinetic parameters of (R)-HZ05; design: species or system C57B1/6N mice; settings: female, C57B1/6N, mouse, plasma, sc, 50 mg kg-1; following subcutaneous administration (Supplementary Fig. 7b); read-out: half-life (converted)
Experimental: Waters Acquity UPLC (Waters Corp.) was used for all LC/MS and LC/MS/MS experiments. For chromatographic separation a general gradient was used (5 % mobile phase B to 90 % over 2 min total run) on a C18 BEH 1.7 µm column 2 × 50 mm (Waters Corp.). Mobile phase A consisted of 5 % acetonitrile 0.1 % formic acid and mobile phase B 100 % acetonitrile 0.1 % formic acid. The flow rate was 0.5 mL min-1 and 3 µL of the sample was injected. A standard curve between 3−1000 nM was prepared for each compound. […]
In vivo Pharmacokinetic Parameter Determination
(R)-HZ05 was formulated for subcutaneous and oral administration at 5 mg mL-1 in 20 % hydroxypropyl-β-cyclodextrin in PBS and formulated at 5 mg mL-1 diluted in physiological NaCl. […]
Blood was collected […]
in EDTA tubes from three mice per time point and stored on ice with plasma separated within 30 min by centrifugation at 2000 g and stored at –80 ° C until analysis at 0.08, 0.25, 0.5, 1, 2, 3, 4, 6 and 24 h post administration. […] internal standard (9 nM warfarin) was added to each plasma sample and each sample was shaken at RT for 10 min followed by centrifugation at 2000 g for 30 min at 4 °C. […] of sample was injected into an Acquity UPLC coupled to a triple quadrupole mass spectrometer (Waters) operated in MRM mode with positive electrospray ionization. MRM transition 381.09 > […]
CV and 40 V for CE) as a qualifier ion. Transition for internal standard was 309.16 > 163.005 (22 V for CV and 14 V for CE). Ion source conditions were: capillary voltage, 2000 V; desolvation temperature, 500 °C; desol vation gas flow rate, 1000 L h-1. Separation was conducted using a BEH C18 column (2.1 × 50 mm, 1.7 µm, Waters) using a linear gradient: 0 – 0.5 min, 5 % B; […], 100 % B, 1.61–2.00 min, 5 % B. Mobile phase A was 5 % acetonitrile with 0.1 % formic acid and B […]
All animal experimentation was carried out by Sweden
Contract In vivo Design AB in compliance with 2010/63/EU directive and approved by Stockholms Norra Djurförsöksetiska Nämnd (laboratory animal eth ical committee Stockholm) with the approval number N61/15. Any single plasma concentration value deviated by >10 times from the other two values was excluded from the pharmacokinetic evaluation, but was included in the figure. […]

HNDF cells = test: PI flow cytometry, sub-G1 cells, HNDF; type: cell-based, human
Experimental: as §1

[6] = tested on: p53-dependent transcription in ARN8 human melanoma cells; test: p53-dependent transcription reporter (CPRG assay) in ARN8 cells; type: cell-based; settings: cultured cells; authors' response in peer review file
Experimental: A 20,000 compound library was purchased from ChemBridge consisting of 10,000 from the DIVERSet and 10,000 from the CombiSet libraries. […] A total of 30,000 additional compounds from the ChemBridge DIVERSet that were previously screened in a T22 cell background[12] were re-screened in ARN8 cells at 5 µM. The ChemBridge codes for these compounds can be made available upon request. All chemical synthesis is detailed in Supplementary Information with NMR spectra and reaction schemes detailed in Supplementary Figs. 13–19.

Compound: O=C(NC1CCCc2c1cnn2-c1ccccc1F)c1ccccn1 (stereo not drawn) [HZ00]
log2FoldChange, drug vs DMSO, gene ENSG00000166436 (RNA levels in ARN8 cells; sheet Drug HZ00vsDMSO (20 μM)): -1.5997
log2FoldChange, drug vs DMSO, gene ENSG00000197153 (RNA levels in ARN8 cells; sheet Drug HZ00vsDMSO (20 μM)): -1.477
log2FoldChange, drug vs DMSO, gene ENSG00000204569 (RNA levels in ARN8 cells; sheet Drug HZ00vsDMSO (20 μM)): -2.244
log2FoldChange, drug vs DMSO, gene ENSG00000221926 (RNA levels in ARN8 cells; sheet Drug HZ00vsDMSO (20 μM)): -1.707
log2FoldChange, drug vs DMSO, gene ENSG00000277224 (RNA levels in ARN8 cells; sheet Drug HZ00vsDMSO (20 μM)): -1.408
synergy with nutlin-3 (cell kill) (ARN8 cells [1]; ARN8 in vitro, 72 h, additivity and Bliss independence models): synergistic cell kill
P-chk1/chk1 ([2]; HZ00 10 µM, 24 h): 1.02
P-chk1/chk1 ([2]; HZ00 10 µM, 48 h): 1.28
P-chk1/chk1 ([2]; HZ00 10 µM, 72 h): 0.78
P-chk1/chk1 ([2]; HZ00 20 µM, 24 h): 0.94
P-chk1/chk1 ([2]; HZ00 20 µM, 48 h): 1.41
P-chk1/chk1 ([2]; HZ00 20 µM, 72 h): 0.87
effect on cell growth and p53 activation in presence of excess uridine (ARN8 cells [3]; ARN8): completely abolished
accumulation of cells in S-phase (ARN8 cells [4]): accumulates ARN8 cells in S-phase
p53 synthesis (p53 in ARN8 cells): increase p53 synthesis

half-life [5]: 2.5 h
Compound: O=C(NC1CCCc2c1cnn2-c1ccccc1F)c1onc2c1CCCC2 (stereo not drawn) [HZ05]
log2FoldChange, drug vs DMSO, gene ENSG00000121101 (RNA levels in ARN8 cells; sheet Drug HZ05vsDMSO (5 μM)): -2.498
log2FoldChange, drug vs DMSO, gene ENSG00000197153 (RNA levels in ARN8 cells; sheet Drug HZ05vsDMSO (5 μM)): -1.694
log2FoldChange, drug vs DMSO, gene ENSG00000204569 (RNA levels in ARN8 cells; sheet Drug HZ05vsDMSO (5 μM)): -2.424
log2FoldChange, drug vs DMSO, gene ENSG00000221926 (RNA levels in ARN8 cells; sheet Drug HZ05vsDMSO (5 μM)): -1.667
log2FoldChange, drug vs DMSO, gene ENSG00000276410 (RNA levels in ARN8 cells; sheet Drug HZ05vsDMSO (5 μM)): -1.7121
DMSO control subtracted effect (cells in sub-G1) (ARN8 cells [1]; HZ05 250 nM + nutlin-3a 0 µM): 0.06
DMSO control subtracted effect (cells in sub-G1) (ARN8 cells [1]; HZ05 250 nM + nutlin-3a 5 µM): 0.27
DMSO control subtracted effect (cells in sub-G1) (ARN8 cells [1]; HZ05 250 nM + nutlin-3a 10 µM): 0.48
DMSO control subtracted effect (cells in sub-G1) (ARN8 cells [1]; HZ05 250 nM + nutlin-3a 15 µM): 0.69
DMSO control subtracted effect (cells in sub-G1) (ARN8 cells [1]; HZ05 250 nM + nutlin-3a […]): 0.61
sub-G1 cells (ARN8 cells [1]; HZ05 400 nM (Fig. 6c)): 16.61%
sub-G1 cells (ARN8 cells [1]; HZ05 400 nM + nutlin-3a 1 μM): 36.73%
sub-G1 cells (ARN8 cells [1]; HZ05 400 nM + nutlin-3a 2.5 μM): 46.63%
sub-G1 cells (ARN8 cells [1]; HZ05 400 nM + nutlin-3a 5 μM): 54.06%
DMSO control subtracted effect (cells in sub-G1) (ARN8 cells [1]; HZ05 500 nM + nutlin-3a 0 µM): 0.08
DMSO control subtracted effect (cells in sub-G1) (ARN8 cells [1]; HZ05 500 nM + nutlin-3a 5 µM): 0.35
DMSO control subtracted effect (cells in sub-G1) (ARN8 cells [1]; HZ05 500 nM + nutlin-3a 10 µM): 0.60
DMSO control subtracted effect (cells in sub-G1) (ARN8 cells [1]; HZ05 500 nM + nutlin-3a 15 µM): 0.67
DMSO control subtracted effect (cells in sub-G1) (ARN8 cells [1]; HZ05 500 nM + nutlin-3a […]): 0.58
sub-G1 cells (ARN8 cells [1]; HZ05 1 μM (Fig. 6b)): 31.06%
DMSO control subtracted effect (cells in sub-G1) (ARN8 cells [1]; HZ05 1000 nM + nutlin-3a 10 µM): 0.56
DMSO control subtracted effect (cells in sub-G1) (ARN8 cells [1]; HZ05 1000 nM + nutlin-3a 15 µM): 0.71
DMSO control subtracted effect (cells in sub-G1) (ARN8 cells [1]; HZ05 1000 nM + nutlin-3a […]): 0.62
sub-G1 cells (ARN8 cells [1]; HZ05 2.5 μM (Fig. 6b)): 35.04%
DMSO control subtracted effect (cells in sub-G1) (ARN8 cells [1]; HZ05 […] + nutlin-3a 0 µM): 0.03
DMSO control subtracted effect (cells in sub-G1) (ARN8 cells [1]; HZ05 […] + nutlin-3a 5 µM): 0.19
DMSO control subtracted effect (cells in sub-G1) (ARN8 cells [1]; HZ05 […] + nutlin-3a 10 µM): 0.39
DMSO control subtracted effect (cells in sub-G1) (ARN8 cells [1]; HZ05 […] + nutlin-3a 15 µM): 0.63
synergy with nutlin-3a (cell kill) (ARN8 cells [1]; ARN8 in vitro, 72 h): strong synergistic cell kill
effect of serum albumin concentration on activity (ARN8 cells [3]; ARN8, 72 h, increasing BSA): affected to a lesser degree than brequinar
effect on cell growth and p53 activation in presence of excess uridine (ARN8 cells [3]; ARN8): prevented by addition of excess uridine
concentration reducing cell viability or growth (ARN8 cells [3]; cultured cells, authors' response in peer review file): ~160 nM
sub-G1 cells (HNDF cells; HZ05 1 μM 72 h + 48 h, 2 μM nutlin-3a last 48 h): 1.9%
sub-G1 cells (HNDF cells; HZ05 1 μM 72 h + 48 h, DMSO last 48 h): 2.2%
sub-G1 cells (HNDF cells; HZ05 1 μM, 72 h treatment): 1.9%
sub-G1 cells (HNDF cells; HZ05 2.5 μM, 72 h treatment): 2.9%
accumulation of cells in S-phase (ARN8 cells [4]): accumulation of ARN8 cells in S-phase
concentration activating p53-dependent transcription [6]: below 40 nM
